Patent US8881823B2, “Environmentally friendly low temperature breaker systems and related methods” (Halliburton Energy Services, Inc., priority 2011, dated 2014)
Like-named read-outs stand apart in the source and are kept apart here. One block for each compound: values may come before it.

Key:
[1] = Biodegradability, OECD 301 D Closed Bottle Test
Source text: The same protocol was used to test EDTA (“DISSOLVINE AM3-40” available from AkzoNobel Corporate) and sodium acetate.

[2] = Miscibility and pH of breaker systems in fresh water; format: physicochemical; conditions: breaker system in fresh water, 150° F. for 16 hours
Protocol: Several chelating agents and acids (breaker systems) were tested for their calcium carbonate dissolving capacity and miscibility in fresh water. Tests of the breaker systems were performed by adding a known volume of breaker system to a volume of brine needed to fill 100 ml in a jar. The jars were then sealed and swirled to mix the components. Samples containing 5%, 10%, or 20% v/v of chelating agents and acids were prepared. The jars were then placed in a static oven at 150° F. for 16 hours. Afterwards, miscibility of the components was observed and the pH of each mixture was tabulated.

[3] = Calcite dissolving capacity of breaker systems; format: physicochemical; conditions: 2.5 g BARACARB 5 in 50 mL test fluid, one hour
Protocol: The calcite dissolving capacity of each breaker system was determined in the following manner. A known amount of a technical grade calcium carbonate (commercially available from Halliburton under the tradename “BARACARB 5”) was dried in an oven for 2 hours. […] The solution was subsequently filtered with a 1 micron fiber glass filter paper.

[4] = Initial and over time miscibility and pH in potassium formate brines; format: physicochemical; conditions: for After Static Aging: overnight 150° F.; for pH Final: static 16 hrs @ 150° F.
Protocol: Completion breaker solutions were to be tested at 5%, 10%, and 20% by volume concentrations in each of the brines. The initial miscibility and the miscibility after static aging overnight at 150° F. were observed. Also, the pH of the final mixes was measured. The different concentrations of the breaker solutions were prepared with fresh water and filtered through a 1.6 μm glass fiber filter prior to testing.
The tests were run by adding the appropriate volume of the test breaker (5%, 10%, or 20% by volume) to the volume of the test brine needed to total 100 ml in a 4 ounce jar, sealing it, and swirling to mix the components. Observation was noted of the compatibility of the components.

[5] = Chemical oxygen demand (COD) test; format: physicochemical
Source text: Table 2 compares the biodegradability of GLDA and EDTA and summarizes chemical oxygen demand (COD) tests which indirectly measures the amount of organic compounds in water.

[6] = Compatibility and dissolution ability in potassium formate brine; format: physicochemical
Protocol: In this Example, the compatibility and dissolution ability of various breaker systems with formate brine were evaluated. […] For each sample a 20% v/v breaker sample was prepared in three different concentrations of potassium formate brine (11 ppg, 12 ppg, and 13 ppg).
To determine the compatibility of each breaker with the potassium formate brine, each sample was checked for the formation of formate salts. This precipitation was indicative of an incompatibility of the breaker system with the formate brine. Samples in which precipitation was observed are noted with an asterisk (*).
The dissolution ability of the breaker systems was also tested in the various concentration of formate brine. […] The jars were then dried in an 90° F. oven for 16 hours. After the elapsed time, the amount of carbonate that remained was weighed and tabulated. The difference in weight represented the amount of carbonate that was dissolved by the breaker system and/or precipitated out as a result of being incompatible with the formate brine.

[7] = 5% by volume, potassium formate brine 11.0 lb/gal
[8] = 5% by volume, potassium formate brine 12.0 lb/gal
[9] = 5% by volume, potassium formate brine 13.0 lb/gal
[10] = 10% by volume, potassium formate brine 11.0 lb/gal
[11] = 10% by volume, potassium formate brine 12.0 lb/gal
[12] = 10% by volume, potassium formate brine 13.0 lb/gal
[13] = 20% by volume, potassium formate brine 11.0 lb/gal
[14] = 20% by volume, potassium formate brine 12.0 lb/gal
[15] = 15% (so in the source), potassium formate brine 13.0 lb/gal

pH [2]: 11 | % Carbonate Complexed or Dissolved [3]: 9.28% | Final Weight of BARACARB 5, g [3]: 2.32 g
Structure (SMILES): O=C(O)CN(CCOCCOCCN(CC(=O)O)CC(=O)O)CC(=O)O [EGTA]

biodegradability (in words) ([1]; OECD 301D protocol): do not meet this standard | Biodegradability ([1]; Table 2): Difficult | COD [5]: ~315 mg/g | % Dissolved or precipitated out ([6]; 20% v/v breaker, 11 ppg Potassium Formate): 92% | Amount of carbonate remaining ([6]; 20% v/v breaker, 11 ppg Potassium Formate, 2.5 g calcium carbonate, 16 hours, * = precipitation of formate salts): 0.21 g | % Dissolved or precipitated out ([6]; 20% v/v breaker, 12 ppg Potassium Formate): 89% | Amount of carbonate remaining, g ([6]; 20% v/v breaker, 12 ppg Potassium Formate, 2.5 g calcium carbonate, 16 hours, * = precipitation of formate salts): 0.28* g | % Dissolved or precipitated out ([6]; 20% v/v breaker, 13 ppg Potassium Formate): 56% | Amount of carbonate remaining, g ([6]; 20% v/v breaker, 13 ppg Potassium Formate, 2.5 g calcium carbonate, 16 hours, * = precipitation of formate salts): 1.10* g
Structure (SMILES): O=C(O)CN(CCN(CC(=O)O)CC(=O)O)CC(=O)O [EDTA, reference compound]
compatibility with the formate brine ([6]; 20% v/v breaker, 11, 12 and 13 ppg potassium formate, precipitation of formate salts = incompatible): only compatible with the formate brine at the lowest tested concentration

biodegradability (in words) [1]: do not meet this standard
Structure (SMILES): O=C(O)CN(CCO)CCN(CC(=O)O)CC(=O)O [HEDTA]

pH [2]: 4.77 | % Carbonate Complexed or Dissolved [3]: 38.4% | Final Weight of BARACARB 5, g [3]: 1.54 g | Initial Observation [4, 7]: Clear, totally soluble | After Static Aging [4, 7]: Clear, totally soluble † | pH Final [4, 7]: 9.6 | Initial Observation [4, 8]: Clear, totally soluble | After Static Aging [4, 8]: Clear, totally soluble † | pH Final [4, 8]: 10.8 | Initial Observation [4, 9]: Clear, totally soluble | After Static Aging [4, 9]: Clear, totally soluble † | pH Final [4, 9]: 11.4 | Initial Observation [4, 10]: Clear, totally soluble | After Static Aging [4, 10]: Clear, totally soluble † | pH Final [4, 10]: 8.6 | Initial Observation [4, 11]: Clear, totally soluble | After Static Aging [4, 11]: Clear, totally soluble † | pH Final [4, 11]: 9.8 | Initial Observation [4, 12]: Clear, totally soluble | After Static Aging [4, 12]: Clear, totally soluble † | pH Final [4, 12]: 10.7 | Initial Observation [4, 15]: Clear, totally soluble | After Static Aging [4, 15]: Clear, totally soluble † | pH Final [4, 15]: 9.9 | Initial Observation [4, 13]: Clear, totally soluble | After Static Aging [4, 13]: Clear, totally soluble † | pH Final [4, 13]: 7.0 | Initial Observation [4, 14]: Clear, totally soluble | After Static Aging [4, 14]: Clear, totally soluble † | pH Final [4, 14]: 8.0
Structure (SMILES): N.N.O=C(O)CN(CCN(CC(=O)O)CC(=O)O)CC(=O)O [EDTA ammonium salt, reference compound]

Further lines, the compound ahead of its results:

Structure (SMILES): CC(=O)[O-].[Na+] [sodium acetate]
biodegradability (in words) ([1]; OECD 301D protocol): readily biodegradable

Structure (SMILES): O=C([O-])CC(NC(CC(=O)[O-])C(=O)[O-])C(=O)[O-].[Na+].[Na+].[Na+].[Na+] (stereo not drawn) [Iminodisuccinate, sodium salt]
pH [2]: 11.3 | % Carbonate Complexed or Dissolved [3]: 5.2% | Final Weight of BARACARB 5, g [3]: 2.37 g

Structure (SMILES): Cl.NC(N)=O [Synthetic acid (HCl salt of urea), HCl salt of urea]
pH [2]: 0.88 | After Static Aging [4, 7]: Slight haze | pH Final [4, 7]: 9.9 | Initial Observation [4, 8]: Clear, totally soluble | After Static Aging [4, 8]: Very slight separation | pH Final [4, 8]: 11.4 | After Static Aging [4, 9]: Hazy | pH Final [4, 9]: 12.2 | pH Final [4, 10]: 7.0 | pH Final [4, 11]: 9.4 | pH Final [4, 12]: 11.0 | pH Final [4, 13]: 6.0 | pH Final [4, 14]: 7.0 | pH Final ([4]; 20% by volume, potassium formate brine 13.0 lb/gal): 7.5 | solubility / miscibility in the potassium formate brines ([4]; tested concentrations, 11.0-13.0 lb/gal brines): not soluble in the brines, but dispersed evenly
